In patent publication US11981695B2, “Linoleic acid derivatives, pharmaceutical composition or food composition comprising said linoleic acid derivatives, and their uses” (UNIVERSITÉ DE BOURGOGNE, priority 2018, dated 2024):
Entries after “also recorded” stand apart in the source; their conditions may differ.

Assays:
[1] = test system: mouse taste bud cells; assay: Ca2+ signaling (Fura-2/AM, F340/F380) in mouse taste bud cells; assay type: cell-based; details: for EC50: 0 to 200 μM, Δ ratio F340/F380, n=6, read-out: EC50 of dose-dependent increases in [Ca2+]i
Method: Briefly, lingual epithelium was separated by enzymatic dissociation which contained the following: elastase and dispase mixture, 2 mg/ml each, in Tyrode's buffer (120 mM NaCl; 5 mM KCl; 10 mM HEPES ((4-(2-hydroxyethyl)-1-piperazineethanesulfonic acid); 1 mM CaCl2; 1 mM MgCl2; 10 mM glucose; 10 mM Na pyruvate, pH 7.4). The taste bud cells were isolated by incubating lingual epithelium in RPMI 1640 medium containing 2 mM EDTA, 1.2 mg/ml elastase, 0.6 mg/ml collagenase (type 1), and 0.6 mg/ml trypsin inhibitor at 37° C. for 10 minutes, followed by centrifugation (600 g, 10 minutes). The cell populations, after separation, were suspended in fresh RPMI 1640 medium containing 10% fetal calf serum, 200 U/ml penicillin, and 0.2 mg/ml streptomycin, seeded onto a Poly-D-Lysine-coated dishes, and cultured for 24 hours. At the end of this period, the cells were used for the experiments or stained with trypan blue to assess their viability.
(§1) The mouse taste bud cells were seeded in 24-well plates (with glass bottom), containing poly-D-lysine for better adhesion to the surface. After 24 h, taste cells were incubated for 45 minutes with a fluorescent probe, Fura-2/AM (1 μM) in calcium buffer (110 mM NaCl, 5.4 mM, KCl, 25 mM, NaHCO3, 0.8 mM, MgCl2, 0.4 mM, KH2PO4, 20 mM, Hepes-Na, 0.33 mM, NaHPO4, 1.2 mM, CaCl2, pH 7.4). Then, the cells are washed with phosphate buffer saline (PBS) and taken up in calcium buffer.
(§2) The changes in intracellular Ca^2+ (F340/F380) were monitored under a Nikon microscope (TiU) by using an S Fluor 40× oil immersion objective.
(§3) Especially, the increases in [Ca^2+ ]i were measured as follows: the mice taste bud cells were cultured on Willico-Dish wells with a glass bottom and loaded with a fluorescent probe, Fura-2/AM. The changes in intracellular Ca^2+ (F340/F380) were monitored under the Nikon microscope (TiU) by using S-fluor 40× oil immersion objective. The planes were taken at Z intervals of 0.3 μm, and NIS-Elements software was used to deconvolve the images. The microscope was equipped with EM-CCD (Lucas) camera for real time recording of 16-bit digital images. The dual excitation fluorescence imaging system was used for studies of individual cells. The changes in intracellular Ca^2+ were expressed as ΔRatio, which was calculated as the difference between the peak F340/F380 ratio. The data were summarized from the large number of individual cells (20-40 cells in a single run, with 3-9 identical experiments done in at least three cell preparations). The results were analyzed with the NIS-elements software, the variation in [Ca^2+]i is expressed as Δ ratio (F340/F380 which was calculated with the difference of spectra at two wavelengths, i.e., 340 nm and 380 nm.

[2] = biological target: T1, CD36 (Mus musculus, UniProt Q08857); assay: Ca2+ signaling in mouse taste bud cells in presence or absence of CD36 inhibitor SSO; assay type: cell-based; details: for action of CD36 inhibitor SSO on the increase in [Ca2+]i: 20 μM SSO, mouse taste bud cells; for CD36 agonist character: judged from suppression by SSO
T1 construct: freshly isolated and primary cultured mice type II taste bud cells (expressing GPR120 and CD36) are used; endogenous in cells; host or cells: primary mouse taste bud cells from fungiform papillae
Method: as §1, §2, §3
CD36: in order to assess if the linoleic acid derivatives according to the invention exert their actions via CD36, sulfo-N-succinimidyl oleate (SSO) was used. SSO is a CD36 inhibitor/blocker/antagonist.
Experiments were performed in the presence or absence of SSO with respect to calcium signaling to verify whether our analogs act well via this lipid receptor. Especially, for this assay, NKS-3, NKS-5 and linoleic acid (control) were tested.

[3] = biological target: T2, GPR120 (Mus musculus, UniProt Q7TMA4); assay: Ca2+ signaling in mouse taste bud cells in presence or absence of GPR120 antagonist AH7614; assay type: cell-based; details: AH7614 20 μM, NKS-5 50 μM
T2 construct: freshly isolated and primary cultured mice type II taste bud cells (expressing GPR120 and CD36) are used; endogenous in cells; host or cells: primary mouse taste bud cells from fungiform papillae
T2 sequence (Q7TMA4 1-361): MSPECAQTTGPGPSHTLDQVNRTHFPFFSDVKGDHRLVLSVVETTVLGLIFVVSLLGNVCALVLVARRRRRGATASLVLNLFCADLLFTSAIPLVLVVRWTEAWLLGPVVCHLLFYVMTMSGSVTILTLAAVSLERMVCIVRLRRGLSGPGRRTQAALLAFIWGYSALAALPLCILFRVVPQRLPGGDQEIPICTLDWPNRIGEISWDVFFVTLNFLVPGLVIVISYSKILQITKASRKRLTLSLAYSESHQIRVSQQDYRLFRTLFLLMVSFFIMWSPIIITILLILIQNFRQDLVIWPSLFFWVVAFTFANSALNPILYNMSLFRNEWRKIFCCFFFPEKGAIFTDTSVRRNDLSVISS
Method: as §1, §2
as §3, with “The planes were taken at Z intervals of 0.3 μm, and NIS-Elements software was used to deconvolve the images. The microscope was equipped with EM-CCD (Lucas) camera for real time recording of 16-bit digital images.” left out, “The data were summarized from the large number of individual cells (20-40 cells in a single run, with 3-9 identical experiments done in at least three cell preparations).” left out, “nm. […]” for “nm.”

[4] = test system: mice (C57Bl/6 black); assay: Two-bottle preference test; assay type: in vivo, mouse; details: for ratio of LA preferred concentration to that of test compound: LA preferred at 7.13 mM or 0.2%; for preference versus control solution (xanthan gum) / effect on palatability of a sucrose-containing solution / preferred (optimal) concentration in two-bottle preference test: 12 h; for preference versus control solution (xanthan gum): 0.3% xanthan gum, test compound 10 to 200 μM or linoleic acid 0.2% (v/v); for effect on palatability of a sucrose-containing solution: sucrose versus sucrose plus test compound 50 μM; for preferred (optimal) concentration in two-bottle preference test: versus xanthan gum
Method: Eight weeks old, male mice (C57Bl/6 black) were purchased from the Janvier Elevage (Le Mans) and used for these experiments.
The mice are placed individually in cages in a controlled environment (humidity and constant temperature) and have free access to a standard diet. 6 hours before the tests, the mice are deprived of water.
During the behavioral experiments, the mice were offered two bottles simultaneously for 12 hours (night period).
The mice are subjected to a choice between the “control” solution and the experimental solution.
Experiment 1 (FIG. 5, FIG. 6A, FIG. 7) • control solutions contain 0.3% xanthan gum, w/v, (Sigma Life Science, USA) in water to reproduce lipid texture and minimize bias due to differences in appearance between the two bottles; • the experimental solution contains, in addition to xanthan gum, 0.3% (w/v), either the “test compound” according to the invention at a concentration varying from 10 to 200 μM (NKS-3, FIG. 6A or NKS-5, FIG. 7) or linoleic acid at 0.2% (v/v) (control test, FIG. 5). To avoid the preference for one side, the position of each bottle is changed during each test.
Experiment 2 (FIG. 6B and FIG. 8): gustatory properties • control solutions contain 2% of sucrose (w/v); • the experimental solution contains, in addition to sucrose (2% w/v), the “test compound” according to the invention (NKS-3, FIG. 6B or NKS-5, FIG. 8) at a concentration of 50 μM.
To estimate the consumption of control and experimental solutions, the bottles are weighed before and after each experiment. The mice are allowed to take rest for 48 hours between each experiment.

[5] = test system: obese C57BL/6J mice; assay: Diet-induced obesity, body weight; assay type: in vivo, mouse; details: for body weight in obese mice: HFD, analogues in feeder bottles from 10th to 28th week, NKS-5 75 μM, NKS-3 50 μM; for body weight of control animals: normal diet
Method: (§4) C57BL/6J male mice, aged between 6 to 10 weeks (16-20 g), were obtained from Janvier Labs (France). They were housed individually in a controlled environment with a 12 h light/dark cycle with food (SAFE, France) and water ad libitum. The palm oil (Huilerie Vigean, France) was the main fat component in high-fat diets. The high-fat diet was prepared weekly and stored at 4° C. until further use. The study was conducted as per Declaration of Helsinki and European ethical guidelines for the care and use of animals for experimentation. All the experimental protocols (protocol number: 16158) were approved by the Regional Ethical Committee of the University of Burgundy (Dijon, France).
(§5) The mice were grouped at random (n=10/group) and fed with either of the following diets: standard diet (STD) or high-fat diet (HFD). The body weight, food, and water intake were measured, weekly.
(§6) After 10 weeks of feeding the diets, obese animals were divided into two groups: one groups continued to be fed on the same HFD; however, another group was fed on the same diet and received either NKS-3 or NKS-5) until 28th of weeks of experimentation. At the end, the animals were sacrificed, under a fasting condition, and used for different analysis in blood and different tissues.
In order to elucidate the beneficial effects and especially during obesity, experiments were conducted on obese C57BL/6J mice. […] In order to test the curative/interventional effects on obesity, the animals were divided into two groups: one group that consume only the high-fat diet (HFD) and the other consuming the same diet and also receiving NKS-3 or NKS-5 in adlibitum baby bottles/feeders. From the 10th week of the diet, lipid analogues were introduced into the bottles at concentrations that corresponded to their preference in the double choice test (NKS-5 at 75 μM; NKS-3 at 50 μM). […] In addition, the decrease in obesity was maintained until the 28th week of feeding a HFD (FIGS. 13A and 13B).

[6] = test system: obese C57BL/6J mice; assay: Blood biochemical parameters in diet-induced obese mice (ELISA, automatic analyzer); assay type: in vivo, mouse; details: obese animals
Method: as §4, §5, §6
The rat/mouse insulin ELISA kit was obtained from EMD Millipore (USA). ELISA kits for CCK, PYY and GLP-1 were purchased from Cloud-Clone Corp. (USA). The ALAT (Alanine Amino Transferase) was determined by an automatic analyzer (Gilford Model 2000 system, a Beckman System T.R).

[7] = test system: C57BL/6J mice; assay: Liver histology in normal diet or HFD fed mice; assay type: in vivo, mouse; details: for liver steatosis in liver sections of obese mice: HFD
Method: as §4, §5, §6
The liver of the mice at the time of sacrifice were fixed in formaldehyde and then dehydrated by passaging into ethanoic media. The liver tissues were embedded into the paraffin and 5μ thick section were cut by the microtome as per standard procedures. The slides, containing tissues, were stained by hematoxylin and eosin dyes as per standard methods. The stained slides were observed under Zeiss light microscope at 10× or 20× magnifications.

T1 sequence (Q08857 whole entry): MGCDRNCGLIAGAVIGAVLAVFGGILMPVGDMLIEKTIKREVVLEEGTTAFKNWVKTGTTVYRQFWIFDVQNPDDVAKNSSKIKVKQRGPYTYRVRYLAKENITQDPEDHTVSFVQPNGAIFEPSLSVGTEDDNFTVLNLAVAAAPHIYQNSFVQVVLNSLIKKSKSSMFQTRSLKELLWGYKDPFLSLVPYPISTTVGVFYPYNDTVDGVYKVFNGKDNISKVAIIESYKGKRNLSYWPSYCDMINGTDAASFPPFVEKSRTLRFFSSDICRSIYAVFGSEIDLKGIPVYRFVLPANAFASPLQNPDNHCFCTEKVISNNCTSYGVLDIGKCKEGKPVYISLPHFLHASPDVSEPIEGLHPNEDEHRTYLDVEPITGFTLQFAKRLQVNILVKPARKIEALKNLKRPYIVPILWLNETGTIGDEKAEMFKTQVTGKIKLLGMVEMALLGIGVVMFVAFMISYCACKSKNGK

SMILES | increase in [Ca2+]i [1] | EC50 [1] | action of CD36 inhibitor SSO on the increase in [Ca2+]i [2] | CD36 agonist character [2] | effect of GPR120 inhibitor AH7614 on the increase in [Ca2+]i [3] | ratio of LA preferred concentration to that of test compound [4] | preference versus control solution (xanthan gum) ([4]; mice) | effect on palatability of a sucrose-containing solution ([4]; mice) | preferred (optimal) concentration in two-bottle preference test ([4]; mice) | body weight in obese mice [5] | body weight of control animals [5] | blood concentration of ALAT [6] | circulating concentrations of IL-6 [6] | insulin concentrations [6] | liver steatosis in liver sections of obese mice [7] | liver histology, normal diet fed mice [7] | action of CD36 inhibitor SSO on the increase in [Ca2+]i ([2]; listed as LA) | concentration preferred in two-bottle preference test ([4]; mice, 7.13 mM or 0.2%)
CCCCC/C=C\C/C=C\CCCCCCCC(=O)OCC1(C)COC1 [NKS-5, (9Z,12Z)-(3-methyloxetan-3-yl)methyl octadeca-9,12-dienoate] | very rapid | 30 ± 0.01 µM | partially inhibited; also recorded: curtailed, but not completely suppressed | partial agonist | significantly curtailed, but not suppressed | 93 times | spontaneous preference | increases the palatability | 75 µM | significant decrease in body weight | no effect | decreased | decrease | decreases | curative effects | did not exert any effect |  | 
CCCCC/C=C\C/C=C\CCCCCCCC(=O)O [Linoleic acid, linoleic acid] | huge increase |  |  |  |  |  | strong preference |  |  |  |  |  |  |  |  |  | completely blocked; also recorded: suppressed | 7.13 mM
CCCCC/C=C\C/C=C\CCCCCCCCP(=O)(OCC)OCC [NKS-3, diethyl (9Z,12Z)-octadeca-9,12-dien-1-ylphosphonate] | very rapid | 25 ± 0.01 µM | completely blocked; also recorded: completely suppressed | complete CD36 agonist |  | 140 times | spontaneous preference | failed to enhance the palatability | 50 µM | significant decrease in body weight | no effect | decreased | decrease | decreases | curative effects | did not exert any effect |  | 
